#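 Five concentrations, 48 hours, 96-well plates. TGI marks complete inhibition of growth.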
# Tests used:
# Assay in all cases: NCI-60 cell line screen, 48 h
# TK-10 renal = system: TK-10 renal
# NCI-H226 lung = system: NCI-H226 lung
# M19-MEL melanoma = system: M19-MEL melanoma
# SNB-19 CNS = system: SNB-19 CNS
# SN12C renal = system: SN12C renal
# RXF-631 renal = system: RXF-631 renal
# OVCAR-3 ovarian = system: OVCAR-3 ovarian
# SW-620 colon = system: SW-620 colon
# MCF7 breast = system: MCF7 breast
# PC-3 prostate = system: PC-3 prostate
# T-47D breast = system: T-47D breast
# BT-549 breast = system: BT-549 breast
# CAKI-1 renal = system: CAKI-1 renal
# A498 renal = system: A498 renal
# MDA-N = system: MDA-N
# HS 578T breast = system: HS 578T breast
# SF-268 CNS = system: SF-268 CNS
# NCI/ADR-RES ovarian = system: NCI/ADR-RES ovarian
# DMS 114 small cell lung = system: DMS 114 small cell lung
# XF 498 CNS = system: XF 498 CNS
Structure (SMILES),TGI (TK-10 renal) [µM],TGI (NCI-H226 lung) [µM],TGI (M19-MEL melanoma) [µM],TGI (SNB-19 CNS) [µM],TGI (SN12C renal) [µM],TGI (RXF-631 renal) [µM],TGI (OVCAR-3 ovarian) [µM],TGI (SW-620 colon) [µM],TGI (MCF7 breast) [µM],TGI (PC-3 prostate) [µM],TGI (T-47D breast) [µM],TGI (BT-549 breast) [µM],TGI (CAKI-1 renal) [µM],TGI (A498 renal) [µM],TGI (MDA-N) [µM],TGI (HS 578T breast) [µM],TGI (SF-268 CNS) [µM],TGI (NCI/ADR-RES ovarian) [µM],TGI (DMS 114 small cell lung) [µM],TGI (XF 498 CNS) [µM]
CC(C)(C)N1C(C(=O)c2ccccc2)C1c1ccccc1 (centres undefined),> 100,> 100,> 100,> 100,> 100,> 100,> 100,> 100,–,–,–,–,–,–,–,–,–,–,–,–
C=CC[N+]12CN3CN(CN(C3)C1)C2,45.4,–,–,> 100,60.2,–,> 100,> 100,> 100,> 100,76.5,61.3,37.1,94.1,35.5,> 100,72.3,62.7,–,–
COc1ccc(C[C@H](N)C(=O)NC2C(CO)OC(n3cnc4c(N(C)C)ncnc43)C2O)cc1 (some centres undefined),–,0.446,1.54,–,–,–,–,–,–,–,–,–,–,2.48,–,–,2.61,–,0.604,0.166

# From PubChem BioAssay (NCI)
